Results from patent US5200393A, “Lipid excipient for nasal delivery and topical application” (The Liposome Company, Inc., priority 1991, dated 1993).

What was measured:
[1] = Nasal delivery of calcitonin in MOPE excipient to rats, serum calcium; format: in vivo, rat; conditions: MOPE used as the excipient delivery vehicle; FIG. 1; change in serum calcium after one and three hours
Method: Eight Wistar Kyoto male rats, weighing 250-300 g were anesthetized with a 20% solution of urethane administered in a divided dose of 1/6 g/kg, administered intraperitoneally (IP).
The rats were surgically prepared for nasal sample instillation according to the Harai method (Hussain et al., 19800, J. Pharm. Sci., 69(12):1411-1413. A pre-drug blood sample was taken from each rat (1.0 ml drawn from retroorbital site) and allowed to clot, and the serum separated by standard technique.
The calcitonin-MOPE solution (single 50 uL doses per rate) were administered by inserting a syringe containing the sample into the rats nostril, and injecting. A blood sample was obtained from each rat after one and three hours, and assayed for serum calcium.
Serum calcium was determined colorimetrically by the Sigma Diagnostics Calcium Kit No. 587 (Sigma, St. Louis, Mo.). The change in serum calcium levels compared to pre-drug controls was plotted as a function of time. (FIG. 1)

[2] = Nasal delivery of insulin in MOPE excipient to diabetic rats, serum insulin radioimmunoassay; format: in vivo, rat
Method: The insulin-MOPE solution of Example 4 was instilled into the nasal cavity of rats according to the methods of Example 3. Right Sprague-Dawley male 300 g rats which had been made diabetic according to the methods of Weiner et al., 1985, J. Pharm. Sci., 74:922-925 were used. Blood samples were collected after one hour and serum separated according to standard methods as in Example 3. The serum was analyzed for insulin using the Coat-A-CountInsulin ^125 I radioimmunoassay (Diagnostic Products Corp., Los Angeles, Calif.).
MOPE (80.0 mg) in chloroform was dried down to a lipid film on a round bottom flask at 37° C. in a water bath. The film was resuspended in 10.0 ml of distilled water which had been pH adjusted to pH 9.0 with about 20-50 uL of 0.1N sodium hydroxide (NaOH). Four mg of porcine insulin powder (Eli Lilly, Indianapolis, Ind.) supplied as 25 U/mg, was admixed with the MOPE solution and vortically mixed, creating a 0.8% MOPE insulin gel. The resulting gel was administered to diabetic rats according to the methods of Example 5. […] The methods of the above Example were repeated, dilutions were made to result in 10 ml of each of 0.4%, 0.2%, and 0.1% MOPE, 4.0 mg of insulin being admixed with these MOPE samples as well, the complete results from serum insulin concentrations of each sample plotted together in FIG. 2. […]

## CCCCCCCC/C=C\CCCCCCCC(=O)OC[C@@H](O)COP(=O)(O)OCCN [MOPE, 1-oleoyl lysophosphatidylethanolamine]
[1]
  enhancement of calcitonin through the nasal mucosa: enhancement
[2]; excipient at about pH 7.0, cloudy fluid
  lipid concentration at which enhanced drug absorption of insulin occurs: about 0.8%
[2]; pH 9.0, in distilled water
  MOPE concentration that has most efficacy for penetration enhancement of insulin: 0.2%
